Tests used:
[1] = tested on: A10(2AP) Tte riboswitch (RNA, riboswitch, 2-aminopurine at 10) CUGGGUCGCAGUAACCCCAGUUAACAAAACAAG; assay: 2-aminopurine fluorescence titration, one-site fit; settings: 100 mM NaCl, 2 mM MgCl2; 50 mM Na-HEPES pH 7.0; 100 nM RNA
[2] = tested on: A32(2AP) Tte riboswitch (RNA, riboswitch, 2-aminopurine at 32) CUGGGUCGCAGUAACCCCAGUUAACAAAACAAG; assay: ITC; settings: 100 mM NaCl, 4 mM MgCl2; 50 mM Na-HEPES pH 7.0, 25 °C
[3] = tested on: A13(2AP) Tte riboswitch (RNA, riboswitch, 2-aminopurine at 13) CUGGGUCGCAGUAACCCCAGUUAACAAAACAAG; assay: 2-aminopurine fluorescence titration, one-site fit; settings: 100 mM NaCl, 2 mM MgCl2; 50 mM Na-HEPES pH 7.0; 100 nM RNA
[4] = tested on: Wildtype Tte riboswitch, biotinylated (SPR) (RNA, riboswitch) CUGGGUCGCAGUAACCCCAGUUAACAAAACAAG; assay: SPR, 1:1 kinetic fit; settings: 100 mM NaCl, 3 mM MgCl2; 10 mM Na-HEPES pH 7.4; immobilised RNA
[5] = tested on: A13(2AP) Tte riboswitch (RNA, riboswitch, 2-aminopurine at 13) CUGGGUCGCAGUAACCCCAGUUAACAAAACAAG; assay: ITC; settings: 100 mM NaCl, 4 mM MgCl2; 50 mM Na-HEPES pH 7.0, 25 °C
[6] = tested on: A32(2AP) Tte riboswitch (RNA, riboswitch, 2-aminopurine at 32) CUGGGUCGCAGUAACCCCAGUUAACAAAACAAG; assay: 2-aminopurine fluorescence titration, one-site fit; settings: 100 mM NaCl, 2 mM MgCl2; 50 mM Na-HEPES pH 7.0; 100 nM RNA
[7] = tested on: Wildtype Tte preQ1-I riboswitch 33-mer (RNA, riboswitch) CUGGGUCGCAGUAACCCCAGUUAACAAAACAAG; assay: ITC; settings: 100 mM NaCl, 4 mM MgCl2; 50 mM Na-HEPES pH 7.0, 25 °C
[8] = tested on: A10(2AP) Tte riboswitch (RNA, riboswitch, 2-aminopurine at 10) CUGGGUCGCAGUAACCCCAGUUAACAAAACAAG; assay: ITC; settings: 100 mM NaCl, 4 mM MgCl2; 50 mM Na-HEPES pH 7.0, 25 °C
[9] = tested on: A14(2AP) Tte riboswitch (RNA, riboswitch, 2-aminopurine at 14) CUGGGUCGCAGUAACCCCAGUUAACAAAACAAG; assay: 2-aminopurine fluorescence titration, one-site fit; settings: 100 mM NaCl, 2 mM MgCl2; 50 mM Na-HEPES pH 7.0; 100 nM RNA
[10] = tested on: A14(2AP) Tte riboswitch (RNA, riboswitch, 2-aminopurine at 14) CUGGGUCGCAGUAACCCCAGUUAACAAAACAAG; assay: ITC; settings: 100 mM NaCl, 4 mM MgCl2; 50 mM Na-HEPES pH 7.0, 25 °C

apparent KD [1]: 0.0139 ± 0.0007 µM | KD [2]: 0.0105 ± 0.0024 µM | apparent KD [3]: 0.0257 ± 0.0024 µM | KD [4]: 1.84 ± 0.08 × 10^-9 M | KD [5]: 0.0216 ± 0.0011 µM | apparent KD [6]: 0.0123 ± 0.0014 µM | KD [7]: 0.0081 ± 0.0009 µM | KD [8]: 0.0126 ± 0.002 µM | apparent KD [9]: 0.0342 ± 0.0016 µM | KD [10]: 0.0193 ± 0.0008 µM
SMILES: NCc1c[nH]c2nc(N)[nH]c(=O)c12

Source: paper PMC7641330 (2020)
